The text below walks through data of article PMC2676941 (The Journal of membrane biology, 2008).

The subject of experiment [1] is plasmodial surface anion channel (PSAC). To be noted: compared with sorbitol and alanine transport; ref Lisk et al. 2007; cited from earlier work.
For experiment [2] the test system is unchanged. Type of experiment: cell-based, Plasmodium falciparum. As to conditions: for concentration to inhibit proline transport versus hydroxyproline transport: data not shown.

Molecules are shown by their SMILES.

Consider `O=C(CCc1ccc(O)cc1)c1c(O)cc(O)cc1O[C@@H]1O[C@H](CO)[C@@H](O)[C@H](O)[C@H]1O` [phloridzin], for which the “inhibition of PhTMA-Cl and isoleucine transport” value in experiment [1] is given as “less effectively inhibited”.

For `O=C(O)c1cc([N+](=O)[O-])ccc1NCCCc1ccccc1` [NPPB], in experiment [2] (10 μM NPPB), the “hydroxyproline uptake (osmotic lysis over 90 min)” value was “abolished” and the proline-mediated lysis result was “slowed but not abolished”. Besides, the “higher inhibitor concentration required to comparably reduce proline uptake” value in experiment [2] (relative to the concentration that abolishes hydroxyproline uptake) worked out at 10 fold.

Take `O=C1CN(/N=C/c2ccc(-c3ccc([N+](=O)[O-])cc3)o2)C(O)=N1` [Dantrolene]: in experiment [2], the “concentration to inhibit proline transport versus hydroxyproline transport” value is “required higher concentrations”.

In the case of `COc1ccc(Cl)cc1C(=O)NCCc1ccc(S(=O)(=O)NC(=O)NC2CCCCC2)cc1` [glybenclamide], in experiment [2], the “concentration to inhibit proline transport versus hydroxyproline transport” value is reported as “required higher concentrations”.
